From US20060140888A1, “Whitening agent containing crystalline molecular complex of hydroquinone and surfactant” (priority 2002, published 2006)
Like-named read-outs stand apart in the source and are kept apart here.

Key:
[1] = cited from earlier work
[2] = Storage stability (outer appearance change) of ointments containing molecular complex crystals; format: physicochemical; conditions: hydrophilic ointment containing 5%, 2 weeks in air at room temperature
Excerpt: Storage Sstability (Outer Appearance Change) of Ointments Prepared by Combining Different Surfactant/Hydroquinone Molecular Complex Crystals with Ointment Bases (Simple Ointment, Hydrophilic Ointment)

back of a person = experiment: Visual observation test for skin reaction (patch test); format: in vivo, human; conditions: for skin reaction (visual): patch test, kneaded with white vaseline
Protocol: A simple surfactant and surfactant/hydroquinone molecular complex crystals were kneaded with white vaseline, and used for a patch test with a patch tester (Torii Yakuhin) on the back of a person. Skin reactions such as eruption, redness, edema or papules were visually noted 48 hours after applying each patch. Skin reactions were also confirmed after 72 hours. The samples used for the patch test were as follows (where the percentage values indicate the proportions of the surfactant or molecular complex crystals).

Q: Which results are given for `Oc1ccc(O)cc1` [simple hydroquinone, 1,4-benzenediol]?
A: solubility ([1]; in benzene): poorly soluble; solubility ([1]; in ether): readily soluble; solubility ([1]; in ethyl acetate): poorly soluble; solubility ([1]; in methanol): readily soluble; solubility ([1]; in water): soluble; outer appearance (coloration) of hydrophilic ointment [2]: Brown spots were confirmed

Q: What does the source list for `CCCCCCCCCCCCCCCC[N+](C)(C)Cc1ccccc1.[Cl-]` [No. 7, hexadecyldimethylbenzylammonium chloride]?
A: overall evaluation of patch test (back of a person; after 48 hours): negative; overall evaluation of patch test (back of a person; after 72 hours): negative; skin reaction (visual) (back of a person; after 48 hours): some redness was found at the center area; skin reaction (visual) (back of a person; after 72 hours): Some redness remained in the center area
